According to PMC8718748, “Molecular Dissection of the Primase and Polymerase Activities of Deep-Sea Phage NrS-1 Primase-Polymerase” (Frontiers in Microbiology, 2021):

Legend:
N300 [1] = molecular target: T1, N300 (Nitratiruptor phage NrS-1, UniProt M5AAG8); test: X-ray crystal structure of complex (SeMet, SAD, […] A); assay type: binding; details: Ca2+ (200 mM calcium acetate in crystals), pH 7.0; active site, 3'-site nucleotide
T1 construct: gene 28; N-terminal 300 residues (Prim/Pol domain + helix bundle domain) of NrSPol; pET28b, 6xHis with TEV site, tag cut for crystals (SeMet for ddCTP crystal); E. coli

N300 [2] = molecular target: T1, N300; test: X-ray crystal structure of complex (native, […] A); assay type: binding; details: Mg2+; crystallised with ddCTP and ssDNA, pH 4.5; active site

T1 sequence (M5AAG8 1-300): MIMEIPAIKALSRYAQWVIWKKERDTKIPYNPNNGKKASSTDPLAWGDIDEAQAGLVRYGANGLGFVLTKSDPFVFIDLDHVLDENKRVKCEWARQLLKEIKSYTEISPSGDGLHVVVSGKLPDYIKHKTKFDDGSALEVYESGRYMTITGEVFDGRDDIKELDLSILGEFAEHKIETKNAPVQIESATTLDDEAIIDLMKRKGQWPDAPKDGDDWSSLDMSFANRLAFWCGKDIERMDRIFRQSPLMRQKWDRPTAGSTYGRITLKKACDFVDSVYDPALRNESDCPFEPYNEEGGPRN

Row | Structure (SMILES) | X-ray crystal structure of complex (SeMet, SAD, 2.24 A) (N300 [1]) | X-ray crystal structure of complex (native, 1.86 A) (N300 [2])
1 | Nc1ccn([C@H]2CC[C@@H](COP(=O)(O)OP(=O)(O)OP(=O)(O)O)O2)c(=O)n1 [ddCTP] | we determined the crystal structures of N300 in complex with ddCTP | 
2 | O=P(O)(O)OP(=O)(O)O [pyrophosphate] |  | a pyrophosphate (PPi) occupies the active site instead of ddCTP
